Where two headings read alike, the source gives them in different places.
Legend:
Assay type in all cases: in vivo
[1] = test system: Alopecurus myosuroides (ALOMY); test: Glasshouse assay for herbicidal activity, pre-/post-emergence (percentage phytotoxicity); conditions: Alopecurus myosuroides, Rate 250 g/ha, 100%=total damage, 0%=no damage
Procedure, shortened: (§1)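 Seeds sown in standard soil in pots, grown 1 day (pre-emergence) or ~12 days (post-emergence) before treatment. Glasshouse: warm species 24/18 °C, cool species 20/16 °C day/night, 16 h light, 65% humidity, watered twice daily. Visual phytotoxicity scored 15DAA (post) or 20DAA (pre); 0% none, 100% total damage.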

Avena fatua (AVEFA) = test: as above; conditions: Avena fatua, Rate 250 g/ha, 100%=total damage, 0%=no damage
Procedure, shortened: as §1

[2] = test system: Echinochloa crus-galli (ECHCG); test: as above; conditions: Echinochloa crus-galli, Rate 250 g/ha, 100%=total damage, 0%=no damage
Procedure, shortened: as §1

Lolium perenne (LOLPE) = test: as above; conditions: Lolium perenne, Rate 250 g/ha, 100%=total damage, 0%=no damage
Procedure, shortened: as §1

wheat = test: Post-emergence herbicidal activity against cereal crops (wheat) +/- safener, crop selectivity; conditions: 100%=total damage to plant, 0%=no damage; for Post-emergence herbicidal activity against wheat (percentage phytotoxicity), +CQC: 250 g/ha, plus safener cloquintocet-mexyl (CQC) applied at 50 g/ha; for percent phytotoxicity (crop damage) to wheat at 250 g/ha: Triticum aestivum, 360 h, without safener, read-out: Post-emergence herbicidal activity against wheat (percentage phytotoxicity), Wheat - CQC
Method: Seeds of a variety of monocotyledonous and dicotyledonous test plants are sown in standard soil in pots. The plants are cultivated for one day (for pre-emergence) or for about 12 days (for post-emergence) under controlled conditions in a glasshouse (warm climate species at 24/18° C., cool climate species at 20/16° C., both at day/night; 16 hours light; 65% humidity). The test plants are then grown on, in a glasshouse (greenhouse) under controlled conditions (warm climate species at 24/18° C., cool climate species at 20/16° C., both at day/night; 16 hours light; 65% humidity) and are watered twice daily. 15 days after application of the test herbicide (15DAA) (for post-emergence), and 20 days after application of the test herbicide (20DAA) (for pre-emergence), the test plants are evaluated visually, and an assessed percentage phytotoxicity score is given for each herbicidal application on each plant species (with 100%=total damage to plant; 0%=no damage to plant).

[3] = 360 h, post-emergence, visual assessment 15 DAA, read-out: Post-emergence herbicidal activity (percentage phytotoxicity), ALOMY POST
[4] = 480 h, pre-emergence, visual assessment 20 DAA, read-out: Pre-emergence herbicidal activity (percentage phytotoxicity), ALOMY PRE
[5] = post-emergence, 360 h, post-emergence, visual assessment 15 DAA, read-out: Post-emergence herbicidal activity (percentage phytotoxicity), AVEFA POST
[6] = pre-emergence, 480 h, pre-emergence, visual assessment 20 DAA, read-out: Pre-emergence herbicidal activity (percentage phytotoxicity), AVEFA PRE
[7] = post-emergence, 360 h, post-emergence, visual assessment 15 DAA, read-out: Post-emergence herbicidal activity (percentage phytotoxicity), ECHCG POST
[8] = pre-emergence, 480 h, pre-emergence, visual assessment 20 DAA, read-out: Pre-emergence herbicidal activity (percentage phytotoxicity), ECHCG PRE
[9] = post-emergence, 360 h, post-emergence, visual assessment 15 DAA, read-out: Post-emergence herbicidal activity (percentage phytotoxicity), LOLPE POST
[10] = pre-emergence, 480 h, pre-emergence, visual assessment 20 DAA, read-out: Pre-emergence herbicidal activity (percentage phytotoxicity), LOLPE PRE

SMILES | pest or weed control at 250 g/ha [1, 3] [%] | pest or weed control at 250 g/ha [1, 4] [%] | pest or weed control at 250 g/ha (Avena fatua (AVEFA); [5]) [%] | pest or weed control at 250 g/ha (Avena fatua (AVEFA); [6]) [%] | pest or weed control at 250 g/ha [2, 7] [%] | pest or weed control at 250 g/ha [2, 8] [%] | pest or weed control at 250 g/ha (Lolium perenne (LOLPE); [9]) [%] | pest or weed control at 250 g/ha (Lolium perenne (LOLPE); [10]) [%] | Post-emergence herbicidal activity against wheat (percentage phytotoxicity), +CQC (wheat) [%] | percent phytotoxicity (crop damage) to wheat at 250 g/ha (wheat) [%]
Cc1cc(-c2ncc(Cl)cc2F)cc(C)c1C1C(=O)CC(CCNC(=O)NC(C)(C)C)C1=O.Cl (stereo not drawn) [Compound A29] | 100 | 90 | 100 | 100 | 100 | 90 | 100 | 100 | 70 | 90
Cc1cc(C)c(C2C(=O)CC(CCNC(=O)Nc3ncccn3)C2=O)c(C)c1 (stereo not drawn) [Compound A30] | 90 | 80 | 80 | 80 | 90 | 60 | 80 | 90 | 40 | 70
Cc1cc(C)c(C2C(=O)CC(CCNC(=O)N(C)C)C2=O)c(C)c1 (stereo not drawn) [Compound A31] | 90 | 80 | 90 | 70 | 70 | 90 | 90 | 100 | 10 | 70
Cc1cc(-n2cc(Cl)cn2)cc(C)c1C1C(=O)CC(CCNC(=O)Nc2ncccn2)C1=O.Cl (stereo not drawn) [Compound A32] | 80 | 70 | 100 | 50 | 100 | 80 | 60 | 60 | 10 | 60
Cc1cc(-n2cc(Cl)cn2)cc(C)c1C1C(=O)CC(CCNC(=O)Nc2ccncn2)C1=O.Cl (stereo not drawn) [Compound A33] | 40 | 60 | 40 | 40 | 80 | 70 | 30 | 0 | 10 | 40
Cc1cc(C)c(C2C(=O)CC(CCNc3ccc(C(F)(F)F)cn3)C2=O)c(C)c1 (stereo not drawn) [Compound A34] | 90 | 90 | 90 | 80 | 100 | 100 | 90 | 100 | 70 | 80
Cc1cc(C)c(C2C(=O)CC(CCNc3nc4ccc(Cl)cc4o3)C2=O)c(C)c1.Cl (stereo not drawn) [Compound A35] | 90 | 70 | 70 | 60 | 100 | 80 | 100 | 100 | 60 | 80
Cc1cc(C)c(C2C(=O)CC(CCNc3ncc(C(F)(F)F)cc3Cl)C2=O)c(C)c1 (stereo not drawn) [Compound A36] | 90 | 60 | 100 | 90 | 90 | 90 | 100 | 90 | 10 | 80
Cc1cc(-n2cc(Cl)cn2)cc(C)c1C1C(=O)CC(CCNS(=O)(=O)c2ccc(Cl)cc2)C1=O (stereo not drawn) [Compound A37] | 0 | 0 | 0 | 0 | 30 | 0 | 0 | 0 | 10 | 20
CON=C(C)C(=O)NCCC1CC(=O)C(c2c(C)cc(-n3cc(Cl)cn3)cc2C)C1=O (stereo not drawn) [Compound A38] | 70 | 70 | 80 | 70 | 100 | 100 | 80 | 70 | 30 | 70
CON=C(C)C(=O)NCCC1CC(=O)C(c2c(C)cc(C)cc2C)C1=O (stereo not drawn) [Compound A39] | 80 | 80 | 80 | 50 | 50 | 30 | 100 | 90 | 10 | 60
Cc1cc(C)c(C2C(=O)CC(CCNC(=O)C3=NOC(C)(C)C3)C2=O)c(C)c1 (stereo not drawn) [Compound A40, N-[2-[2,4-dioxo-3-(2,4,6-trimethylphenyl)cyclopentyl]ethyl]-5,5-dimethyl-4H-isoxazole-3-carboxamide] | 100 | 90 | 100 | 100 | 100 | 100 | 90 | 100 | 80 | 90
CC(=NOCc1ccccc1)C(=O)NCCC1CC(=O)C(c2c(C)cc(-n3cc(Cl)cn3)cc2C)C1=O (stereo not drawn) [Compound A41] | 60 | 0 | 20 | 0 | 60 | 0 | 40 | 0 | 20 | 60
CON=C(C#N)C(=O)NCCC1CC(=O)C(c2c(C)cc(-n3cc(Cl)cn3)cc2C)C1=O (stereo not drawn) [Compound A42] | 0 | 0 | 0 | 0 | 70 | 0 | 10 | 0 | 10 | 0
Cc1cc(-n2cc(Cl)cn2)cc(C)c1C1C(=O)CC(CCNC(=O)C2=NOC(C)(C)C2)C1=O (stereo not drawn) [Compound A43] | 90 | 90 | 100 | 90 | 100 | 90 | 100 | 90 | 50 | 90

Reference: patent publication US10301295B2, “Herbicidal compounds” (Syngenta Participations AG, priority 2014, dated 2019)
